Results as given in patent US20030176479A1, “Use of selective EP4 receptor agonists for the treatment of liver failure, loss of patency of the ductus arteriosus, glaucoma or ocular hypertension” (priority 2002, published 2003).

How the values were obtained:
rat EP2 receptor = biological target: T1, rat EP2 receptor (Rattus norvegicus, UniProt Q62928); test: Rat EP2 receptor binding assay (3H-PGE2 displacement, 293S cell membranes); conditions: displacement of 3H-prostaglandin E2, 293S membranes, 1 hour at 25° C.
T1 construct: The full-length rat EP2 receptor is made in accordance with the procedure in Nemoto et al; expressed in transfected cells
T1 sequence (Q62928 whole entry): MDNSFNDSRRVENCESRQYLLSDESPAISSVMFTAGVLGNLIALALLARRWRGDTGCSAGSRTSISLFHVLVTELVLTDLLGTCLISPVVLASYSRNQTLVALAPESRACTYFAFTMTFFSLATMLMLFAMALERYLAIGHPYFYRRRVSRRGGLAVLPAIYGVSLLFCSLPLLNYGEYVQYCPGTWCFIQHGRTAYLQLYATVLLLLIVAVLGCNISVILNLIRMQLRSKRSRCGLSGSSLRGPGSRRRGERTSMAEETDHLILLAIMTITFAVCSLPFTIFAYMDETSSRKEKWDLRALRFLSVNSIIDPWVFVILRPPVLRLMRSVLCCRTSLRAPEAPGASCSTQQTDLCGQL
From the text: (§1) The compounds of Formula I or II, which are useful in the methods of the present invention, bind to the prostaglandin E2 type 4 receptor (EP4 receptor). The full-length coding sequence for the human EP1 receptor is made in accordance with the procedure in Funk et al., Journal of Biological Chemistry, 1993, 268, 26767-26772. The full-length rat EP2 receptor is made in accordance with the procedure in Nemoto et al., Prostaglandins and other Lipid Mediators, 1997, 54, 713-725. The full-length coding sequence for the human EP3 receptor is made in accordance with the procedure in Regan et al., British Journal of Pharmacology, 1994, 112, 377-385. The full-length coding sequence for the rat EP4 receptor is made in accordance with the procedure in Sando et al., Biochem. Biophys. Res. Comm. 1994, 200,1329-1333. These full-length receptors are used to prepare 293S cells expressing the human EP1, rat EP2, human EP3 or rat EP4 receptors.
(§2) Human EP1, Rat EP2, Human EP3, Rat EP4 Receptor Binding Assay
(§3) The full-length receptors described above are used to prepare 293S cells expressing the EP1, EP2, EP3, and EP4 receptors.
(§4) 293S cells expressing either the human EP1, rat EP2, human EP3 or rat EP4 prostaglandin E2 receptors are generated according to methods known to those skilled in the art. Typically, PCR (polymerase chain reaction) primers corresponding to the 5′ and 3′ ends of the published full length receptor are made according to the well known methods disclosed above and are used in an RT-PCR (reverse transcriptase-polymerase chain reaction) reaction using the total RNA from human kidney (for EP1), rat kidney (for EP2), human lung (for EP3), or rat kidney (EP4) as a source. PCR products are cloned by the TA overhang method into pCR2.1 (Invitrogen Corporation, Carlsbad, Calif.) and identity of the cloned receptor is confirmed by DNA sequencing. For expression of the rat EP2 receptor, the confirmed cDNA is subcloned into the mammalian expression vector PURpCl, a vector generated by subcloning the selectable marker for puromycin resistance into the mammalian expression vector pCl (Promega, Madison, Wis.)
(§5) 293S cells are transfected with either the cloned human EP1 or EP3 receptor in pcDNA3 by electroporation. Stable cell lines expressing either the human EP1 or EP3 receptor are established following selection of transfected cells with G418. 293S cells are transfected with the cloned rat EP2 receptor in PURpCi by lipid mediated transfection. Stable cell lines expressing the rat EP2 receptor are established following selection of transfected cells with puromycin. 293S cells are transfected with the cloned rat EP4 receptor in pcDNA3 by lipid mediated transfection. Stable cell lines expressing the rat EP4 receptor are established following selection of transfected cells with Geneticin® (Invitrogen, Carlsbad, Calif.).
(§6) Clonal cell lines expressing the maximal number of receptors are chosen following a whole cell ^3H-PGE2 binding assay using unlabeled PGE2 as a competitor.
(§7) Membrane Preparation: All operations are performed at 4° C. Transfected cells expressing either prostaglandin E2 type 1, type 2, type 3, or type 4 (EP1, EP2, EP3, or EP4, respectively) receptors are harvested and suspended to 2 million cells per ml in Buffer A [50 mM Tris-HCl (pH 7.4), 10 mM MgCI2, 1 mM EDTA, 1 mM Pefabloc peptide, (Boehringer Mannheim Corp., Indianapolis, Ind.), 10 uM Phosporamidon peptide, (Sigma, St. Louis, Mo.), 1 uM pepstatin A peptide, (Sigma, St. Louis, Mo.), 10 uM elastatinal peptide, (Sigma, St. Louis, Mo.), 100 uM antipain peptide, (Sigma, St. Louis, Mo.)]. The cells are lysed by sonification with a Branson Sonifier (Branson Ultrasonics Corporation, Danbury, Conn.) in 2 fifteen-second bursts. Unlysed cells and debris are removed by centrifugation at 100 ×g for 10 min. Membranes are then harvested by centrifugation at 45,000×g for 30 minutes. […]

rat EP4 receptor = biological target: T2, rat EP4 receptor (Rattus norvegicus, UniProt P43114); test: Rat EP4 receptor binding assay (3H-PGE2 displacement, 293S cell membranes); conditions: displacement of 3H-prostaglandin E2, 293S membranes, 1 hour at 25° C.
T2 construct: expressed in transfected cells
T2 sequence (P43114 whole entry): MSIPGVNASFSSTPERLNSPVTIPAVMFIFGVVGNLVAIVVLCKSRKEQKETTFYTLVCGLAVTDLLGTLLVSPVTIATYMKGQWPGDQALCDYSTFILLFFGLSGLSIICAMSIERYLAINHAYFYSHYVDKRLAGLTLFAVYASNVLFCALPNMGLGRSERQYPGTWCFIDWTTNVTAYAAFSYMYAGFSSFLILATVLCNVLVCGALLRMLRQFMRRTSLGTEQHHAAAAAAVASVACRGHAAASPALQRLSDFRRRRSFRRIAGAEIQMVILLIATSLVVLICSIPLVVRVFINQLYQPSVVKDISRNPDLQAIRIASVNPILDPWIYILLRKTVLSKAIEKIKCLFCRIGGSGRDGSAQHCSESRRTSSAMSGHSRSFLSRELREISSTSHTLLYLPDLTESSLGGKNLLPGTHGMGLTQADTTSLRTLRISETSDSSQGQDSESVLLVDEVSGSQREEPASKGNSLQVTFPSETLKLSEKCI
From the text: as §1, §2, §3, §4, §5, §6, §7

| SMILES | IC50 (rat EP2 receptor) [nM] | IC50 (rat EP4 receptor) [nM] |
| --- | --- | --- |
| O=C(O)CCCCCCN1C(=O)CC[C@@H]1CC[C@@H](O)Cc1cccc(Cl)c1 [Example 1, 7-{2S-[4-(3-Chloro-phenyl)-3R-hydroxy-butyl]-5-oxo-pyrrolidin-1-yl}-heptanoic acid] | > 3200 | 22 |
| O=C(O)CCCCCCN1C(=O)CC[C@@H]1CC[C@@H](O)Cc1cccc(C(F)(F)F)c1 [Example 2, 7-{2S-[3R-hydroxy-4-(3-trifluoromethyl-phenyl)-butyl]-5-oxo-pyrrolidin-1-yl}-heptanoic acid] | 2760 | 21 |
| O=C1CC[C@H](CCC(O)Cc2cccc(Cl)c2)N1CCCCCCc1nn[nH]n1 (stereo partly drawn) [Example 3, 5S-[4-(3-Chloro-phenyl)-3-hydroxy-butyl]-1-[6-(2H-tetrazol-5-yl)-hexyl]-pyrrolidin-2-one] | 2370 | 38 |
| O=C1CC[C@H](CC[C@@H](O)Cc2cccc(C(F)(F)F)c2)N1CCCCCCc1nn[nH]n1 [Example 4, 5S-[3R-Hydroxy-4-(3-trifluoromethyl-phenyl)-butyl]-1-[6-(2H-tetrazol-5-yl)-hexyl]-pyrrolidin-2-one] | > 3200 | 33 |
| O=C1CCC(CCC(O)Cc2cccc(-c3ccccc3)c2)N1CCCCCCc1nn[nH]n1 (stereo not drawn) [Example 6, 5-(4-Biphenyl-3-yl-3-hydroxy-butyl)-1-[6-(2H-tetrazol-5-yl)-hexyl]-pyrrolidin-2-one] | 3050 | 50 |
| O=C(O)CCCCCCN1C(=O)CCC1CCC(O)Cc1ccccc1 (stereo not drawn) [Example 9, 7-(2-(3-hydroxy-4-phenyl-butyl)-5-oxo-pyrrolidin-1-yl)-heptanoic acid] | > 3200 | 54 |
